From US20200069583A1, “IN SITU PHASE CHANGE GEL SUSTAINED-RELEASE SYSTEM FOR SMALL MOLECULE DRUG AND PREPARATION METHOD THEREOF” (SICHUAN UNIVERSITY, priority 2017, published 2020)
Structures can show the parent of a compound that is named as a salt.

Tests used:
[1] = Blood concentration of 2,4-dinitrophenol in rats after subcutaneous dosing, surfactant comparison (Experimental Example 1); conditions: Sprague-Dawley (SD), rat, in vivo, sc, 12.5 mg/kg 2,4-dinitrophenol, LC-MS/MS, surfactant 3.5 g varied
Experimental: The following test was carried out in accordance with the preparation method of Example 1, except that the Span in the prescription of Example 1 was replaced with glyceryl dioleate (Test Example 1), Tween (Test Example 2) and sucrose acetate isobutyrate (Test Example 3). At the same time, the original drug solution group was designed (Test Example 4, 50 mg of the drug was dissolved in 10 mL of phosphate buffer (pH=7.6), and a solution of the same concentration as in Example 1 was prepared).
200-220 g of SD rats were randomly divided into five groups, 6 rats in each group, and were administered subcutaneously with 12.5 mg/kg dosage of 2,4-dinitrophenol (Example 1, Test Example 1, Test Example 2, Test Example 3 and Test Example 4). At the scheduled time point, blood was taken from the rat eye and placed in a heparin sodium anticoagulated test tube. After the sample was processed, the blood concentration was measured by LC-MS/MS.

[2] = In vivo pharmacokinetics of 2,4-dinitrophenol preparations, subcutaneous (Experimental Example 4); design: species or system male SD rats
Experimental: The product of Example 1 was injected subcutaneously into male SD rats, whose blood was taken at regular intervals. The content of 2,4-dinitrophenol in plasma was determined by high-performance liquid chromatography-mass spectrometry (LC-MS/MS), thereby investigating the sustained release effect thereof.
200-220 g of SD rats were randomly divided into three groups, solution group (Test Example 4 in Experimental Example 1), phospholipid Span gel group (Example 1), and high-concentration phospholipid gel group (prepared according to patent CN102526753A). There were 6 rats in each group and they were injected subcutaneously at the dosage of 12.5 mg/kg. At the scheduled time point, blood was taken from the rat eye and placed in a heparin sodium anticoagulated test tube. After the sample was processed, the blood concentration was measured by LC-MS/MS injection.
The fomulation of the high-concentration phospholipid gel sustained release preparation (patent CN102526753A) is as follows: […]

[3] = Cmax of other small molecule drugs in plasma, preparation versus original drug solution (Experimental Example 7); type: in vivo; conditions: male SD rats, subcutaneous; for Phospholipid Span sustained release preparation Cmax: drug in preparation made by prescription and method of Example 1; for Cmax: Sprague-Dawley (SD), rat, sc
Experimental: In vivo experiments in animals were used to investigate the effects of other small molecule drugs on inhibiting burst release. […] The obtained phospholipid Span sustained release preparation and original drug solution of the other small molecule drugs (each drug was formulated with water, ethanol or DMSO for injection, depending on the specific solubility) were injected subcutaneously into male SD rats, whose blood was taken at regular intervals. The C. of the small molecule drugs in plasma was determined by high-performance liquid chromatography-mass spectrometry (LC-MS/MS), thereby investigating the effect on inhibiting burst release.

[4] = In vivo pharmacokinetics of dabigatran etexilate preparations, subcutaneous (Experimental Example 5); conditions: male, Sprague-Dawley (SD), rat, plasma, sc, SD rats, solution 11.4 mg/kg, gels 80 mg/kg
Experimental: At the scheduled time point, blood was taken from the rat eye and placed in a heparin sodium anticoagulated test tube. After the sample was processed, the blood concentration was measured by LC-MS/MS.

[5] = original drug solution in water, ethanol or DMSO for injection
[6] = in vivo, drug in preparation made by prescription and method of Example 1, read-out: Phospholipid Span sustained release preparation Cmax
[7] = drug in preparation made by prescription and method of Example 1, read-out: Phospholipid Span sustained release preparation Cmax

In the case of `O=[N+]([O-])c1ccc(O)c([N+](=O)[O-])c1` [Test Example4, 2,4-dinitrophenol], the Cmax [1] is reported as 54500 ng/mL, the Cmax ([2]; male, Sprague-Dawley (SD), rat, in vivo, sc, 12.5 mg/kg, rats, subcutaneous, same dose, 2,4-dinitrophenol) is reported as ~54500 ng/mL and the “Duration of drug release” value ([2]; rats, same dose, original drug group) is reported as 24 h.

For `NS(=O)(=O)c1cc2c(cc1C(F)(F)F)NCNS2(=O)=O` [Hydroflumethiazido], the “Phospholipid Span sustained release preparation Cmax” value [3] was 870 ± 520 ng/mL and the “Original drug Cmax” value [3, 5] was 5780 ± 2060 ng/mL.

`Cn1c(=O)c2[nH]cnc2n(C)c1=O` [theophylline] gave a Cmax [3, 6] of 1540 ± 320 ng/mL.

Work on `COCCOC(=O)C1=C(C)NC(C)=C(C(=O)OC(C)C)C1c1cccc([N+](=O)[O-])c1` (stereo not shown) [Nimodipine] yielded a Cmax [3, 7] of 1510 ± 670 ng/mL.

For `COc1cccc2c1C(=O)c1c(O)c3c(c(O)c1C2=O)C[C@@](O)(C(=O)CO)C[C@@H]3O[C@H]1C[C@H](N)[C@H](O)[C@H](C)O1` [Doxorubicin], the Cmax [3, 7] was 30 ± 10 ng/mL.

`C[C@@H]1C[C@H]2[C@@H]3CCC4=CC(=O)C=C[C@]4(C)[C@@]3(F)[C@@H](O)C[C@]2(C)[C@@]1(O)C(=O)CO` [Dexamethasone] gave a Cmax ([3]; male, drug in preparation made by prescription and method of Example 1, read-out: Phospholipid Span sustained release preparation Cmax) of 130 ± 50 ng/mL and a Cmax ([3]; male, original drug solution in water, ethanol or DMSO for injection, read-out: Original drug Cmax) of 530 ± 120 ng/mL.

In the case of `CC(=O)Oc1ccccc1C(=O)O` [Aspirin], the Cmax [3, 7] is reported as 14600 ± 3120 ng/mL.

For `C/C=C1\[C@H]2C=C(C)C[C@]1(N)c1ccc(=O)[nH]c1C2` [Huperzine A], the “Phospholipid Span sustained release preparation Cmax” value [3] was 1330 ± 220 ng/mL and the “Original drug Cmax” value [3, 5] was 13870 ± 2860 ng/mL.

Molecule `CN(C)C(=N)N=C(N)N` [Metformin hydrochloride] has a Cmax [3, 7] of 820 ± 90 ng/mL.

`NC(=O)N1c2ccccc2C=Cc2ccccc21` [Carbamazepine] gave a Cmax [3, 7] of 4460 ± 570 ng/mL.

For `CCCCCCOC(=O)NC(=N)c1ccc(NCc2nc3cc(C(=O)N(CCC(=O)OCC)c4ccccn4)ccc3n2C)cc1` [Solution group, dabigatran etexilate], the “AUC (0→∞)” value ([2]; SD rats, subcutaneous, 12.5 mg/kg, 2,4-dinitrophenol) was 10.19 ± 1.11 mg·days/L, the AUC(0-t) [4] was 1970 ± 474 ng·h/mL and the Cmax [4] was 244 ± 31.5 ng/mL. It also gave a Tmax [4] of 3.18 ± 0.21 h, a half-life [4] of 5.21 ± 0.83 h and an MRT last ([4]; read-out: MRT0-t) of 7.86 ± 1.14 h.

For `CCC1(c2ccccc2)C(=O)NC(=O)NC1=O` [Phenobarbital], the Cmax [3, 6] was 2510 ± 680 ng/mL.
